From ChEMBL document CHEMBL4004838, “Design and synthesis of novel phenyl -1, 4-beta-carboline-hybrid molecules as potential anticancer agents” (Eur J Med Chem, 2017)

What was measured:
Type in all cases: functional
SK-MEL-2 = assay: Growth inhibition of human SK-MEL-2 cells assessed as cell growth at 1 uM incubated for 48 hrs by sulforhodamine B assay relative to control; conditions: SK-MEL-2, 48 h, read-out: Activity
NCI-H226 = assay: Growth inhibition of human NCI-H226 cells assessed as cell growth at 0.01 uM incubated for 48 hrs by sulforhodamine B assay relative to control; conditions: NCI-H226, 48 h, read-out: Activity
OVCAR-3 [1] = assay: Growth inhibition of human OVCAR3 cells assessed as cell growth at 100 uM incubated for 48 hrs by sulforhodamine B assay relative to control; conditions: OVCAR-3, 48 h, read-out: Activity
PC-3 = assay: Growth inhibition of human PC3 cells assessed as cell growth at 0.1 uM incubated for 48 hrs by sulforhodamine B assay relative to control; conditions: PC-3, 48 h, read-out: Activity
SK-OV-3 = assay: Growth inhibition of human SKOV3 cells incubated for 48 hrs by sulforhodamine B assay; conditions: SK-OV-3, 48 h
U-251 [2] = assay: Growth inhibition of human U251 cells assessed as cell growth at 0.1 uM incubated for 48 hrs by sulforhodamine B assay relative to control; conditions: U-251, 48 h, read-out: Activity
UACC-62 [3] = assay: Growth inhibition of human UACC62 cells assessed as cell growth at 0.01 uM incubated for 48 hrs by sulforhodamine B assay relative to control; conditions: UACC-62, 48 h, read-out: Activity
MDA-MB-468 = assay: Growth inhibition of human MDA-MB-468 cells incubated for 48 hrs by sulforhodamine B assay; conditions: MDA-MB-468, 48 h
COLO 205 = assay: Growth inhibition of human COLO205 cells incubated for 48 hrs by sulforhodamine B assay; conditions: COLO 205, 48 h
A498 [4] = assay: Growth inhibition of human A498 cells assessed as cell growth at 0.1 uM incubated for 48 hrs by sulforhodamine B assay relative to control; conditions: A498, 48 h, read-out: Activity
UACC-257 [5] = assay: Growth inhibition of human UACC257 cells assessed as cell growth at 0.01 uM incubated for 48 hrs by sulforhodamine B assay relative to control; conditions: UACC-257, 48 h, read-out: Activity
SF-268 [6] = assay: Growth inhibition of human SF268 cells assessed as cell growth at 1 uM incubated for 48 hrs by sulforhodamine B assay relative to control; conditions: SF-268, 48 h, read-out: Activity
DU-145 = assay: Growth inhibition of human DU145 cells assessed as cell growth at 0.01 uM incubated for 48 hrs by sulforhodamine B assay relative to control; conditions: DU-145, 48 h, read-out: Activity
UACC-62 [7] = assay: Growth inhibition of human UACC62 cells incubated for 48 hrs by sulforhodamine B assay; conditions: UACC-62, 48 h
HL-60(TB) [8] = assay: Growth inhibition of human HL-60(TB) cells assessed as cell growth at 100 uM incubated for 48 hrs by sulforhodamine B assay relative to control; conditions: HL-60, 48 h, read-out: Activity
SF-268 [9] = assay: Growth inhibition of human SF268 cells assessed as cell growth at 0.01 uM incubated for 48 hrs by sulforhodamine B assay relative to control; conditions: SF-268, 48 h, read-out: Activity
NCI-H23 = assay: Growth inhibition of human NCI-H23 cells assessed as cell growth at 0.01 uM incubated for 48 hrs by sulforhodamine B assay relative to control; conditions: NCI-H23, 48 h, read-out: Activity
OVCAR-3 [10] = assay: Growth inhibition of human OVCAR3 cells assessed as cell growth at 0.1 uM incubated for 48 hrs by sulforhodamine B assay relative to control; conditions: OVCAR-3, 48 h, read-out: Activity
KM12 = assay: Growth inhibition of human KM12 cells assessed as cell growth at 0.01 uM incubated for 48 hrs by sulforhodamine B assay relative to control; conditions: KM12, 48 h, read-out: Activity
U-251 [11] = assay: Growth inhibition of human U251 cells assessed as cell growth at 100 uM incubated for 48 hrs by sulforhodamine B assay relative to control; conditions: U-251, 48 h, read-out: Activity
SR = assay: Growth inhibition of human SR cells assessed as cell growth at 1 uM incubated for 48 hrs by sulforhodamine B assay relative to control; conditions: read-out: Activity
UACC-257 [12] = assay: Growth inhibition of human UACC257 cells assessed as cell growth at 100 uM incubated for 48 hrs by sulforhodamine B assay relative to control; conditions: UACC-257, 48 h, read-out: Activity
ACHN = assay: Growth inhibition of human ACHN cells assessed as cell growth at 100 uM incubated for 48 hrs by sulforhodamine B assay relative to control; conditions: read-out: Activity
HL-60(TB) [13] = assay: Growth inhibition of human HL-60(TB) cells assessed as cell growth at 1 uM incubated for 48 hrs by sulforhodamine B assay relative to control; conditions: HL-60, 48 h, read-out: Activity
UACC-257 [14] = assay: Growth inhibition of human UACC257 cells assessed as cell growth at 1 uM incubated for 48 hrs by sulforhodamine B assay relative to control; conditions: UACC-257, 48 h, read-out: Activity
Malme-3M = assay: Growth inhibition of human MALME-3M cells assessed as cell growth at 0.01 uM incubated for 48 hrs by sulforhodamine B assay relative to control; conditions: read-out: Activity
CAKI-1 = assay: Growth inhibition of human Caki1 cells assessed as cell growth at 100 uM incubated for 48 hrs by sulforhodamine B assay relative to control; conditions: CAKI-1, 48 h, read-out: Activity
HOP-62 = assay: Growth inhibition of human HOP62 cells assessed as cell growth at 0.01 uM incubated for 48 hrs by sulforhodamine B assay relative to control; conditions: HOP-62, 48 h, read-out: Activity
SK-MEL-28 = assay: Growth inhibition of human SK-MEL-28 cells assessed as cell growth at 0.1 uM incubated for 48 hrs by sulforhodamine B assay relative to control; conditions: SK-MEL-28, 48 h, read-out: Activity
A498 [15] = assay: Growth inhibition of human A498 cells assessed as cell growth at 100 uM incubated for 48 hrs by sulforhodamine B assay relative to control; conditions: A498, 48 h, read-out: Activity
HCC 2998 = assay: Growth inhibition of human HCC2998 cells assessed as cell growth at 100 uM incubated for 48 hrs by sulforhodamine B assay relative to control; conditions: HCC 2998, 48 h, read-out: Activity
A549 = assay: Growth inhibition of human A549/ATCC cells incubated for 48 hrs by sulforhodamine B assay; conditions: A549, 48 h
[16] = read-out: LC50 (the source's name)
[17] = read-out: pLC50 (the source's name) (converted)

## c1ccc2c3c([nH]c2c1)C(c1ccc(C2NCCc4c2[nH]c2ccccc42)cc1)NCC3 (racemic)
SK-MEL-2
  growth at 1 µM: 86%
NCI-H226
  growth at 0.01 µM: 97%
OVCAR-3 [1]
  growth at 100 µM: 82%
PC-3
  growth at 0.1 µM: 94%
SK-OV-3; read-out: GI50
  GI50: 1.88 µM
SK-OV-3; [16]
  CC50: 9.12 µM
SK-OV-3; read-out: TGI
  TGI: 4.14 µM
SK-OV-3; read-out: pGI50 (converted)
  GI50: 1.86 µM
SK-OV-3; [17]
  CC50: 9.12 µM
SK-OV-3; read-out: pTGI (converted)
  TGI: 4.17 µM
U-251 [2]
  growth at 0.1 µM: 97%
UACC-62 [3]
  growth at 0.01 µM: 96%
MDA-MB-468; [16]
  CC50: 5.01 µM
MDA-MB-468; read-out: pGI50 (converted)
  GI50: 0.363 µM
MDA-MB-468; [17]
  CC50: 5.01 µM
MDA-MB-468; read-out: pTGI (converted)
  TGI: 1.35 µM
COLO 205; read-out: GI50
  GI50: 2.04 µM
COLO 205; [16]
  CC50: 1.2 µM
COLO 205; read-out: TGI
  TGI: 4.59 µM
COLO 205; read-out: pGI50 (converted)
  GI50: 0.204 µM
COLO 205; [17]
  CC50: 1.2 µM
COLO 205; read-out: pTGI (converted)
  TGI: 0.457 µM
A498 [4]
  growth at 0.1 µM: 67%
UACC-257 [5]
  growth at 0.01 µM: 101%
SF-268 [6]
  growth at 1 µM: 57%
DU-145
  growth at 0.01 µM: 100%
UACC-62 [7]; [16]
  CC50: 5.15 µM
UACC-62 [7]; read-out: pGI50 (converted)
  GI50: 0.741 µM
UACC-62 [7]; [17]
  CC50: 5.13 µM
UACC-62 [7]; read-out: pTGI (converted)
  TGI: 2.14 µM
HL-60(TB) [8]
  growth at 100 µM: 83%
SF-268 [9]
  growth at 0.01 µM: 92%
NCI-H23
  growth at 0.01 µM: 95%
OVCAR-3 [10]
  growth at 0.1 µM: 96%
KM12
  growth at 0.01 µM: 101%
U-251 [11]
  growth at 100 µM: 92%
SR
  growth at 1 µM: 36%
UACC-257 [12]
  growth at 100 µM: 94%
ACHN
  growth at 100 µM: -91%
HL-60(TB) [13]
  growth at 1 µM: 57%
UACC-257 [14]
  growth at 1 µM: 103%
Malme-3M
  growth at 0.01 µM: 89%
CAKI-1
  growth at 100 µM: -98%
HOP-62
  growth at 0.01 µM: 84%
SK-MEL-28
  growth at 0.1 µM: 96%
A498 [15]
  growth at 100 µM: -85%
HCC 2998
  growth at 100 µM: 84%
A549; read-out: GI50
  GI50: 1.1 µM
A549; read-out: TGI
  TGI: 2.54 µM
A549; read-out: pGI50 (converted)
  GI50: 1.1 µM
A549; read-out: pTGI (converted)
  TGI: 2.51 µM

## c1ccc2[nH]c(-c3ccc(-c4nccc5c4[nH]c4ccccc45)cc3)nc2c1
SK-MEL-2
  growth at 1 µM: 94%
NCI-H226
  growth at 0.01 µM: 93%
OVCAR-3 [1]
  growth at 100 µM: 58%
PC-3
  growth at 0.1 µM: 100%
SK-OV-3; [16]
  CC50: 4.66 µM
SK-OV-3; read-out: pGI50 (converted)
  GI50: 4.37 µM
SK-OV-3; [17]
  CC50: 46.8 µM
SK-OV-3; read-out: pTGI (converted)
  TGI: 15.8 µM
U-251 [2]
  growth at 0.1 µM: 104%
UACC-62 [3]
  growth at 0.01 µM: 89%
MDA-MB-468; read-out: GI50
  GI50: 2.52 µM
MDA-MB-468; [16]
  CC50: 4.97 µM
MDA-MB-468; read-out: TGI
  TGI: 6.62 µM
MDA-MB-468; read-out: pGI50 (converted)
  GI50: 2.51 µM
MDA-MB-468; [17]
  CC50: 50.1 µM
MDA-MB-468; read-out: pTGI (converted)
  TGI: 6.61 µM
COLO 205; read-out: GI50
  GI50: 2.32 µM
COLO 205; [16]
  CC50: 4.35 µM
COLO 205; read-out: TGI
  TGI: 6.22 µM
COLO 205; read-out: pGI50 (converted)
  GI50: 2.34 µM
COLO 205; [17]
  CC50: 43.7 µM
COLO 205; read-out: pTGI (converted)
  TGI: 6.17 µM
A498 [4]
  growth at 0.1 µM: 83%
UACC-257 [5]
  growth at 0.01 µM: 93%
SF-268 [6]
  growth at 1 µM: 93%
DU-145
  growth at 0.01 µM: 98%
UACC-62 [7]; read-out: GI50
  GI50: 1.6 µM
UACC-62 [7]; [16]
  CC50: 7.62 µM
UACC-62 [7]; read-out: TGI
  TGI: 3.49 µM
UACC-62 [7]; read-out: pGI50 (converted)
  GI50: 1.58 µM
UACC-62 [7]; [17]
  CC50: 7.59 µM
UACC-62 [7]; read-out: pTGI (converted)
  TGI: 3.47 µM
HL-60(TB) [8]
  growth at 100 µM: 40%
SF-268 [9]
  growth at 0.01 µM: 97%
NCI-H23
  growth at 0.01 µM: 95%
OVCAR-3 [10]
  growth at 0.1 µM: 103%
KM12
  growth at 0.01 µM: 95%
U-251 [11]
  growth at 100 µM: 75%
SR
  growth at 1 µM: 88%
UACC-257 [12]
  growth at 100 µM: 81%
ACHN
  growth at 100 µM: 98%
HL-60(TB) [13]
  growth at 1 µM: 94%
UACC-257 [14]
  growth at 1 µM: 96%
Malme-3M
  growth at 0.01 µM: 93%
CAKI-1
  growth at 100 µM: 76%
HOP-62
  growth at 0.01 µM: 86%
SK-MEL-28
  growth at 0.1 µM: 98%
A498 [15]
  growth at 100 µM: 85%
HCC 2998
  growth at 100 µM: 76%
A549; read-out: GI50
  GI50: 4.15 µM
A549; read-out: LC50
  LC50 (concentration killing 50% of starting cells): 7.98 µM
A549; read-out: pGI50 (converted)
  GI50: 4.17 µM
A549; read-out: pLC50 (converted)
  LC50 (concentration killing 50% of starting cells): 79.4 µM
A549; read-out: pTGI (converted)
  TGI: 18.6 µM
